Assay results reported in patent US9783537B2, “3-(4-ethylnylphenyl) pyridopyrimidinone compounds and process for preparation thereof useful as potential anticancer agents” (Council of Scientific & Industrial Research, priority 2013, dated 2017).
Where two headings read alike, the source gives them in different places.

Columns and labels:
SN12C = experiment: SRB 48 h growth assay, Renal SN12C; assay type: cell-based, human; settings: for GI50 / CC50: Homo sapiens; for CC50: read-out: Log10 LC50 (converted)
U251 = experiment: SRB 48 h growth assay, CNS U251; assay type: cell-based, human; settings: for GI50 / CC50: Homo sapiens; for CC50: U-251, read-out: Log10 LC50 (converted)
HCC-2998 = experiment: SRB 48 h growth assay, Colon HCC-2998; assay type: cell-based, human; settings: HCC-2998, Colon; for GI50 / CC50: Homo sapiens; for CC50: read-out: Log10 LC50 (converted)
HT-29 = experiment: SRB 48 h growth assay, Colon HT-29; assay type: cell-based, human; settings: HT-29, Colon; for GI50 / CC50: Homo sapiens; for CC50: read-out: Log10 LC50 (converted)
MOLT-4 = experiment: SRB 48 h growth assay, Leukemia MOLT-4; assay type: cell-based, human; settings: MOLT-4, Leukemia
[1] = test system: eight renal cancer cell line (786-0, A498, ACHN, CAKI-1, SN12C, TK-10, UO-31 and RXF 393); experiment: in vitro anticancer activity, renal panel; assay type: cell-based; settings: Homo sapiens; eight renal cancer cell lines, exposure at least 48 h; read-out: in vitro anticancer activity, range over panel
SK-MEL-28 = experiment: SRB 48 h growth assay, Melanoma SK-MEL-28; assay type: cell-based, human; settings: SK-MEL-28, Melanoma
SR = experiment: SRB 48 h growth assay, Leukemia SR; assay type: cell-based, human; settings: Homo sapiens
NCI-H460 = experiment: SRB 48 h growth assay, Non-small Cell Lung NCI-H460; assay type: cell-based, human; settings: for GI50: Homo sapiens
COLO 205 = experiment: SRB 48 h growth assay, Colon COLO 205; assay type: cell-based, human; settings: COLO 205, Colon; for GI50 / CC50: Homo sapiens; for CC50: read-out: Log10 LC50 (converted)
SK-MEL-2 = experiment: SRB 48 h growth assay, Melanoma SK-MEL-2; assay type: cell-based, human; settings: SK-MEL-2, Melanoma
NCI-H322M = experiment: SRB 48 h growth assay, Non-small Cell Lung NCI-H322M; assay type: cell-based, human; settings: for GI50 / CC50: Homo sapiens; for CC50: read-out: Log10 LC50 (converted)
CAKI-1 = experiment: SRB 48 h growth assay, Renal CAKI-1; assay type: cell-based, human; settings: CAKI-1, Renal; for GI50 / CC50: Homo sapiens; for CC50: read-out: Log10 LC50 (converted)
OVCAR-5 = experiment: SRB 48 h growth assay, Ovarian OVCAR-5; assay type: cell-based, human; settings: OVCAR-5, Ovarian
[2] = read-out: Growth Inhibition GI50
[3] = read-out: Log10 GI50 (converted)
[4] = U-251, read-out: Growth Inhibition GI50
[5] = U-251, read-out: Log10 GI50 (converted)
[6] = Homo sapiens, read-out: Growth Inhibition GI50
[7] = Homo sapiens, read-out: Log10 GI50 (converted)
[8] = Homo sapiens, read-out: Log10 LC50 (converted)

Q: For `C#Cc1ccc(-n2c(/C=C/c3ccc4ccccc4n3)nc3ncccc3c2=O)cc1` [4t, (E)-3-(4-Ethynylphenyl)-2-(2-(quinolin-2-yl)vinyl)pyrido[2,3-d]pyrimidin-4(3H)-one], which “Log10 TGI50” value (SN12C) is on record?
A: The value was −5.67.

Q: What about the GI50 (SN12C; [2]) of the same molecule?
A: The GI50 was 0.39 µM.

Q: And the GI50 (SN12C; [3])?
A: The GI50 was 0.389 µM.

Q: And the CC50 (SN12C)?
A: The CC50 was greater than 100 µM.

Q: And the “Log10 TGI50” value (U251)?
A: Its value is −5.84.

Q: What about the GI50 (U251; [4]) of the same molecule?
A: The GI50 was 0.34 µM.

Q: What about the GI50 (U251; [5]) of the same molecule?
A: The GI50 was 0.339 µM.

Q: And the CC50 (U251)?
A: Its CC50 is 8.13 µM.

Q: And the “Log10 TGI50” value (HCC-2998)?
A: The value was −5.92.

Q: And the GI50 (HCC-2998; [2])?
A: Its GI50 is 0.34 µM.

Q: What about the GI50 (HCC-2998; [3]) of the same molecule?
A: The GI50 was 0.347 µM.

Q: What about the CC50 (HCC-2998) of the same molecule?
A: The CC50 was 6.31 µM.

Q: And the “Log10 TGI50” value (HT-29)?
A: The value was −5.96.

Q: And the GI50 (HT-29; [2])?
A: Its GI50 is 360 nM.

Q: And the GI50 (HT-29; [3])?
A: The GI50 was 372 nM.

Q: What about the CC50 (HT-29) of the same molecule?
A: The CC50 was 4.27 µM.

Q: What about the GI50 (MOLT-4; [6]) of the same molecule?
A: Its GI50 is 450 nM.

Q: And the GI50 (MOLT-4; [7])?
A: The GI50 was 457 nM.

Q: What about the CC50 (MOLT-4; [8]) of the same molecule?
A: Its CC50 is greater than 100 µM.

Q: And the “Log10 TGI50” value (MOLT-4)?
A: Its value is greater than −4.00.

Q: What about the GI50 [1] of the same molecule?
A: The GI50 was 1.48 to 8.78 µM.

Q: And the GI50 (SK-MEL-28; [6])?
A: Its GI50 is 1.05 µM.

Q: What about the GI50 (SK-MEL-28; [7]) of the same molecule?
A: Its GI50 is 1.05 µM.

Q: What about the “Log10 TGI50” value (SK-MEL-28) of the same molecule?
A: Its value is −5.51.

Q: And the GI50 (SR; [2])?
A: Its GI50 is 270 nM.

Q: And the GI50 (SR; [3])?
A: The GI50 was 275 nM.

Q: What about the CC50 (SR; read-out: Log10 LC50 (converted)) of the same molecule?
A: Its CC50 is greater than 100 µM.

Q: What about the “Log10 TGI50” value (NCI-H460) of the same molecule?
A: The value was −6.03.

Q: What about the GI50 (NCI-H460; [2]) of the same molecule?
A: Its GI50 is 290 nM.

Q: And the GI50 (NCI-H460; [3])?
A: The GI50 was 302 nM.

Q: And the “Log10 TGI50” value (COLO 205)?
A: Its value is −6.13.

Q: What about the GI50 (COLO 205; [2]) of the same molecule?
A: The GI50 was 300 nM.

Q: What about the GI50 (COLO 205; [3]) of the same molecule?
A: Its GI50 is 302 nM.

Q: And the CC50 (COLO 205)?
A: Its CC50 is 3.63 µM.

Q: What about the GI50 (SK-MEL-2; [6]) of the same molecule?
A: Its GI50 is 410 nM.

Q: What about the GI50 (SK-MEL-2; [7]) of the same molecule?
A: The GI50 was 417 nM.

Q: What about the “Log10 TGI50” value (SK-MEL-2) of the same molecule?
A: Its value is −5.80.

Q: What about the “Log10 TGI50” value (NCI-H322M) of the same molecule?
A: Its value is −5.62.

Q: What about the GI50 (NCI-H322M; [2]) of the same molecule?
A: Its GI50 is 0.52 µM.

Q: And the GI50 (NCI-H322M; [3])?
A: Its GI50 is 0.525 µM.

Q: And the CC50 (NCI-H322M)?
A: Its CC50 is greater than 100 µM.

Q: What about the “Log10 TGI50” value (CAKI-1) of the same molecule?
A: Its value is −5.81.

Q: And the GI50 (CAKI-1; [2])?
A: Its GI50 is 0.32 µM.

Q: What about the GI50 (CAKI-1; [3]) of the same molecule?
A: Its GI50 is 0.324 µM.

Q: And the CC50 (CAKI-1)?
A: Its CC50 is greater than 100 µM.

Q: And the GI50 (OVCAR-5; [6])?
A: Its GI50 is 310 nM.

Q: What about the GI50 (OVCAR-5; [7]) of the same molecule?
A: The GI50 was 309 nM.

Q: And the “Log10 TGI50” value (OVCAR-5)?
A: The value was −5.97.

Q: What does the source list for `C#Cc1ccc(-n2c(/C=C/c3cc(OC)c(OC)c(OC)c3)nc3ncccc3c2=O)cc1` [4q, (E)-3-(4-Ethynylphenyl)-2-(3,4,5-trimethoxystyryl)pyrido[2,3-d]pyrimidin-4(3H)-one]?
A: Log10 TGI50 (SN12C): >−4.00; GI50 (SN12C; [2]): 20.5 µM; GI50 (SN12C; [3]): 20.4 µM; CC50 (SN12C): > 100 µM; Log10 TGI50 (U251): >−4.00; GI50 (U251; [4]): 9.93 µM; GI50 (U251; [5]): 10 µM; CC50 (U251): > 100 µM; Log10 TGI50 (HCC-2998): >−4.00; GI50 (HCC-2998; [2]): 27.5 µM; GI50 (HCC-2998; [3]): 27.5 µM; CC50 (HCC-2998): > 100 µM; Log10 TGI50 (HT-29): −4.82; GI50 (HT-29; [2]): 3920 nM; GI50 (HT-29; [3]): 3890 nM; CC50 (HT-29): > 100 µM; GI50 (SK-MEL-28; [6]): 34.6 µM; GI50 (SK-MEL-28; [7]): 34.7 µM; CC50 (SK-MEL-28; [8]): > 100 µM; Log10 TGI50 (SK-MEL-28): >−4.00; Log10 TGI50 (NCI-H460): −4.60; GI50 (NCI-H460; [2]): 4110 nM; GI50 (NCI-H460; [3]): 4070 nM; Log10 TGI50 (COLO 205): −4.92; GI50 (COLO 205; [2]): 3190 nM; GI50 (COLO 205; [3]): 3160 nM; CC50 (COLO 205): > 100 µM; GI50 (SK-MEL-2; [6]): 4540 nM; GI50 (SK-MEL-2; [7]): 4570 nM; CC50 (SK-MEL-2; [8]): > 100 µM; Log10 TGI50 (SK-MEL-2): −4.66; Log10 TGI50 (NCI-H322M): >−4.00; GI50 (NCI-H322M; [2]): 14.1 µM; GI50 (NCI-H322M; [3]): 14.1 µM; CC50 (NCI-H322M): > 100 µM; Log10 TGI50 (CAKI-1): >−4.00; GI50 (CAKI-1; [2]): 6.07 µM; GI50 (CAKI-1; [3]): 6.03 µM; CC50 (CAKI-1): > 100 µM; GI50 (OVCAR-5; [6]): > 100000 nM; GI50 (OVCAR-5; [7]): > 100000 nM; CC50 (OVCAR-5; [8]): > 100 µM; Log10 TGI50 (OVCAR-5): >−4.00
